What was measured:
Pyrenophora teres = experiment: Activity against Pyrenophora teres (net blotch on barley) in the microtiter plate test; assay type: cell-based; conditions: MTP, 405 nm, 7 days after inoculation
Procedure: The active substances were formulated separately as a stock solution in dimethyl sulfoxide (DMSO) at a concentration of 10 000 ppm. Use Example 2—Activity Against Pyrenophora teres (Net Blotch on Barley) in the Microtiter Plate Test The stock solutions were mixed according to the ratio, pipetted onto a micro titer plate (MTP) and diluted with water to the stated concentrations. A spore suspension of Pyrenophora teres in an aqueous biomalt solution was then added. The plates were placed in a water vapor-saturated chamber at a temperature of 18° C. Using an absorption photometer, the MTPs were measured at 405 nm 7 days after the inoculation. The measured parameters were compared to the growth of the active compound-free control variant (100%) and the fungus-free and active compound-free blank value to determine the relative growth in % of the pathogens in the respective active compounds. These percentages were converted into efficacies. The expected efficacies of active compound mixtures were determined using Colby's formula [R. S. Colby, “Calculating synergistic and antagonistic responses of herbicide combinations”, Weeds 15, 20-22 (1967)] and compared with the observed efficacies.

Botrytis cinerea = experiment: Activity against the grey mold Botrytis cinerea in the microtiter plate test; assay type: cell-based; conditions: MTP, 405 nm, 7 days after inoculation
Procedure: The active substances were formulated separately as a stock solution in dimethyl sulfoxide (DMSO) at a concentration of 10 000 ppm. Use Example 1—Activity Against the Grey Mold Botrytis cinerea in the Microtiter Plate Test The stock solutions were mixed according to the ratio, pipetted onto a micro titer plate (MTP) and diluted with water to the stated concentrations. A spore suspension of Botrci cinerea in an aqueous biomalt solution was then added. The plates were placed in a water vapor-saturated chamber at a temperature of 18° C. Using an absorption photometer, the MTPs were measured at 405 nm 7 days after the inoculation. The measured parameters were compared to the growth of the active compound-free control variant (100%) and the fungus-free and active compound-free blank value to determine the relative growth in % of the pathogens in the respective active compounds. These percentages were converted into efficacies. The expected efficacies of active compound mixtures were determined using Colby's formula [R. S. Colby, “Calculating synergistic and antagonistic responses of herbicide combinations”, Weeds 15, 20-22 (1967)] and compared with the observed efficacies.

COc1cc(C)c(C(=O)c2c(OC)ccc(Br)c2C)c(OC)c1OC [Metrafenon, Metrafenone]
Observed efficacy (%) (Pyrenophora teres; 0.063 ppm): 3% | Observed efficacy (%) (Pyrenophora teres; 1 ppm): 18% | Observed efficacy (%) (Botrytis cinerea; 16 ppm): 10%

O=C(NCCc1ncc(C(F)(F)F)cc1Cl)c1ccccc1C(F)(F)F [Fluopyram]
Observed efficacy (%) (Pyrenophora teres; 0.063 ppm): 16% | Observed efficacy (%) (Pyrenophora teres; 0.25 ppm): 60% | Observed efficacy (%) (Botrytis cinerea; 0.25 ppm): 18%

— US20120010253A1, “Fungicidal compositions comprising Fluopyram and Metrafenone” (BASF SE, priority 2009, published 2012)
